Source: patent US6673791B2, “Non-nucleoside reverse transcriptase inhibitors” (Boehringer Ingelheim (Canada) Ltd., priority 2001, dated 2004)
Read-outs that look alike come from different tables or passages of the source.

Assays:
[1] = target: T1, K103N/Y181C double mutant RT (HIV-1 RT) (Human immunodeficiency virus type 1 group M subtype B, UniProt P03366, K702N/Y780C); assay: biochemical
T1 construct: mutations that occur in the reverse transcriptase segment of the pol gene
Text: (§1) Based upon testing of these compounds, as described below, it is known that they inhibit the RNA-dependent DNA polymerase activity of HIV-1 RT. […] Utilising the Reverse Transcriptase (RT) Assay described below, compounds can be tested for their ability to inhibit the RNA-dependent DNA polymerase activity of HIV-1 RT. Certain specific compounds described in the Examples which appear below, were so tested. The results of this testing appear in Table 4 as IC50 (nM) and Table 5 as EC50 (nM).
(§2) Reverse TranscriptASE (RT) Assays
(§3) The assays are as described in WO 01/96338A1, the contents of which are hereby incorporated herein. The results are listed in Tables 8 as IC50(nM) and EC50(nM).

WT RT (HIV-1 RT) = target: T2, WT RT (HIV-1 RT) (Human immunodeficiency virus type 1 group M subtype B, UniProt P03366); assay: biochemical
T2 construct: mutations that occur in the reverse transcriptase segment of the pol gene
Text: as §1, §2, §3

[2] = target: T3, Y188L mutant RT (HIV-1 RT) (Human immunodeficiency virus type 1 group M subtype B, UniProt P03366, Y787L); assay: biochemical
T3 construct: mutations that occur in the reverse transcriptase segment of the pol gene
Text: as §1, §2, §3

[3] = target: T4, V106A mutant RT (HIV-1 RT) (Human immunodeficiency virus type 1 group M subtype B, UniProt P03366, V705A); assay: biochemical
T4 construct: mutations that occur in the reverse transcriptase segment of the pol gene
Text: as §1, §2, §3

[4] = test system: WT RT (HIV-1 wild type strain); assay: EC50 assay, WT RT strain; assay type: cell-based
Text: as §2, §3

[5] = test system: K103N/Y181C (HIV-1 double mutant strain); assay: EC50 assay, K103N/Y181C strain; assay type: cell-based
Text: as §2, §3

[6] = Human immunodeficiency virus 1, read-out: EC50 WT RT (nM)
[7] = Human immunodeficiency virus 1, read-out: EC50 K103N/Y181C (nM), K103N/Y181C double mutant
[8] = K103N/Y181C double mutant RT, read-out: IC50 K103N/Y181C
[9] = wild type RT, read-out: IC50 WT RT
[10] = wild type, read-out: EC50 WT RT
[11] = K103N/Y181C double mutant, read-out: EC50 K103N/Y181C

SMILES | IC50 [1] | IC50 (WT RT (HIV-1 RT)) | IC50 ([2]; IC50 Y188L (nM)) | IC50 ([3]; IC50 V106A (nM)) | EC50 [4, 6] | EC50 [5, 7] | IC50 [1, 8] | IC50 (WT RT (HIV-1 RT); [9]) | IC50 ([2]; read-out: IC50 Y188L) | IC50 ([3]; read-out: IC50 V106A) | EC50 [4, 10] | EC50 [5, 11]
CCN1c2ncc(CCOc3ccc(/C=C(\C)C(=O)O)c4ccccc34)cc2C(=O)N(C)c2ccc(F)nc21 [Entry 1037] | 100 to 1000 nM | < 100 nM | > 1000 nM | > 1000 nM | < 100 nM | < 100 nM | – | – | – | – | – | –
CCN1c2ncc(CCOc3ccc(/C=C/C(=O)O)c4ccccc34)cc2C(=O)N(C)c2ccc(F)nc21 [Entry 1032] | 100 to 1000 nM | < 100 nM | 100 to 1000 nM | 100 to 1000 nM | < 100 nM | < 100 nM | – | – | – | – | – | –
CCN1c2ncc(CCOc3ccc(C(=O)O)c4c3CCC4)cc2C(=O)N(C)c2cccnc21 [Entry 4001] | 100 to 1000 nM | < 100 nM | > 1000 nM | 100 to 1000 nM | < 100 nM | < 100 nM | – | – | – | – | – | –
CCN1c2ncc(CCOc3ccc(C4CC4C(=O)O)c4ccccc34)cc2C(=O)N(C)c2ccc(F)nc21 (stereo not drawn) [Entry 1050] | 100 to 1000 nM | < 100 nM | 100 to 1000 nM | 100 to 1000 nM | < 100 nM | 100 to 1000 nM | – | – | – | – | – | –
CCN1c2ncc(CCOc3ccc(C(=O)O)c4ccccc34)cc2C(=O)N(C)c2ccc(Cl)nc21 [Entry 1002] | < 100 nM | < 100 nM | 100 to 1000 nM | 100 to 1000 nM | < 100 nM | < 100 nM | – | – | – | – | – | –
CCN1c2ncc(CCOc3ccc(/C=C/C(=O)O)c4ccccc34)cc2C(=O)N(C)c2ccc(C)nc21 [Entry 1033] | 100 to 1000 nM | < 100 nM | 100 to 1000 nM | 100 to 1000 nM | < 100 nM | < 100 nM | – | – | – | – | – | –
CCN1c2ncc(CCOc3ccc(/C=C(\C)C(=O)O)c4ccccc34)cc2C(=O)N(C)c2cccnc21 [Entry 1035] | 100 to 1000 nM | < 100 nM | > 1000 nM | > 1000 nM | < 100 nM | < 100 nM | – | – | – | – | – | –
CCN1c2ncc(CCOc3ccc(CCC(=O)O)c4c3CCCC4)cc2C(=O)N(C)c2ccc(Cl)nc21 [Entry 5010] | 100 to 1000 nM | < 100 nM | 100 to 1000 nM | > 1000 nM | < 100 nM | < 100 nM | – | – | – | – | – | –
CCN1c2ncc(CCOc3ccc(/C=C(\C)C(=O)O)c4ccccc34)cc2C(=O)Nc2c(C)cc(Cl)nc21 [Entry 1040] | 100 to 1000 nM | < 100 nM | > 1000 nM | 100 to 1000 nM | < 100 nM | 100 to 1000 nM | – | – | – | – | – | –
CCN1c2ncc(CCOc3ccc(NC(=O)CCC(=O)O)c4ccccc34)cc2C(=O)N(C)c2cccnc21 [Entry 2006] | – | – | – | – | – | – | 100 to 1000 nM | < 100 nM | > 1000 nM | > 1000 nM | < 100 nM | 100 to 1000 nM
CCN1c2ncc(CCOc3ccc(CCC(=O)NN)c4ccccc34)cc2C(=O)N(C)c2cccnc21 [Entry 2020] | – | – | – | – | – | – | 100 to 1000 nM | < 100 nM | > 1000 nM | > 1000 nM | < 100 nM | 100 to 1000 nM
CCN1c2ncc(CCOc3ccc(CCC(=O)O)c4ccccc34)cc2C(=O)N(C)c2cccnc21 [Entry 1021] | 100 to 1000 nM | < 100 nM | > 1000 nM | > 1000 nM | < 100 nM | < 100 nM | – | – | – | – | – | –
CCN1c2ncc(CCOc3ccc(CCC(=O)O)c4ccccc34)cc2C(=O)N(C)c2ccc(Cl)nc21 [Entry 1022] | 100 to 1000 nM | < 100 nM | > 1000 nM | 100 to 1000 nM | < 100 nM | < 100 nM | – | – | – | – | – | –
CCN1c2ncc(CCOc3ccc(/C=C/C(=O)O)c4ccccc34)cc2C(=O)N(C)c2ccc(Cl)nc21 [Entry 1029] | 100 to 1000 nM | < 100 nM | 100 to 1000 nM | 100 to 1000 nM | < 100 nM | < 100 nM | – | – | – | – | – | –
CCN1c2ncc(CCOc3ccc(CC(=O)NS(C)(=O)=O)c4ccccc34)cc2C(=O)N(C)c2cccnc21 [Entry 1019] | – | – | – | – | – | – | 100 to 1000 nM | < 100 nM | > 1000 nM | > 1000 nM | < 100 nM | 100 to 1000 nM
